In the supplement of paper PMC11451515:

Tested on: NOMO1
Test: cell viability relative to DMSO control; higher = less cytotoxic
Details: 48 h
Procedure, shortened: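 Viability is a per-plate percentage relative to DMSO wells, with cell-free wells as background. CellTiter-Glo One luminescence was read after 48 h at 37°C on 1536-well plates (5 μl) of NOMO1 or SEM (500 cells/well) or P12-Ichikawa (1000 cells/well) leukemia cells. The cells had been adapted for at least four passages in each medium and pin-dosed with library compounds in DMSO from 47 μM to 0.79 nM in 11 threefold steps.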

[1] = RPMI 5 mM glucose + 10% FBS, 0.000781 µM
[2] = RPMI 5 mM glucose + 10% FBS, 0.00234 µM
[3] = RPMI 5 mM glucose + 10% FBS, 0.00702 µM
[4] = RPMI 5 mM glucose + 10% FBS, 0.0211 µM
[5] = RPMI 5 mM glucose + 10% FBS, 0.0632 µM
[6] = RPMI 5 mM glucose + 10% FBS, 0.19 µM
[7] = RPMI 5 mM glucose + 10% FBS, 0.569 µM
[8] = RPMI 5 mM glucose + 10% FBS, 1.71 µM
[9] = RPMI 5 mM glucose + 10% FBS, 5.12 µM
[10] = RPMI 5 mM glucose + 10% FBS, 15.4 µM
[11] = RPMI 5 mM glucose + 10% FBS, 46.1 µM
[12] = RPMI 5 mM glucose + 10% dialyzed FBS, 0.000781 µM
[13] = RPMI 5 mM glucose + 10% dialyzed FBS, 0.00234 µM
[14] = RPMI 5 mM glucose + 10% dialyzed FBS, 0.00702 µM
[15] = RPMI 5 mM glucose + 10% dialyzed FBS, 0.0211 µM
[16] = RPMI 5 mM glucose + 10% dialyzed FBS, 0.0632 µM
[17] = RPMI 5 mM glucose + 10% dialyzed FBS, 0.19 µM
[18] = RPMI 5 mM glucose + 10% dialyzed FBS, 0.569 µM
[19] = RPMI 5 mM glucose + 10% dialyzed FBS, 1.71 µM
[20] = RPMI 5 mM glucose + 10% dialyzed FBS, 5.12 µM
[21] = RPMI 5 mM glucose + 10% dialyzed FBS, 15.4 µM
[22] = RPMI 5 mM glucose + 10% dialyzed FBS, 46.1 µM
[23] = HPLM + 10% dialyzed FBS, 0.000781 µM
[24] = HPLM + 10% dialyzed FBS, 0.00234 µM
[25] = HPLM + 10% dialyzed FBS, 0.00702 µM
[26] = HPLM + 10% dialyzed FBS, 0.0211 µM
[27] = HPLM + 10% dialyzed FBS, 0.0632 µM
[28] = HPLM + 10% dialyzed FBS, 0.19 µM
[29] = HPLM + 10% dialyzed FBS, 0.569 µM
[30] = HPLM + 10% dialyzed FBS, 1.71 µM
[31] = HPLM + 10% dialyzed FBS, 5.12 µM
[32] = HPLM + 10% dialyzed FBS, 15.4 µM
[33] = HPLM + 10% dialyzed FBS, 46.1 µM

SMILES | cell viability [1] [%] | cell viability [2] [%] | cell viability [3] [%] | cell viability [4] [%] | cell viability [5] [%] | cell viability [6] [%] | cell viability [7] [%] | cell viability [8] [%] | cell viability [9] [%] | cell viability [10] [%] | cell viability [11] [%] | cell viability [12] [%] | cell viability [13] [%] | cell viability [14] [%] | cell viability [15] [%] | cell viability [16] [%] | cell viability [17] [%] | cell viability [18] [%] | cell viability [19] [%] | cell viability [20] [%] | cell viability [21] [%] | cell viability [22] [%] | cell viability [23] [%] | cell viability [24] [%] | cell viability [25] [%] | cell viability [26] [%] | cell viability [27] [%] | cell viability [28] [%] | cell viability [29] [%] | cell viability [30] [%] | cell viability [31] [%] | cell viability [32] [%] | cell viability [33] [%]
NC(=O)c1ncn([C@@H]2O[C@H](CO)[C@@H](O)[C@H]2O)c1O | 122 | 125 | 114 | 118 | 114 | 136 | 129 | 127 | 112 | 112 | 117 | 122 | 127 | 115 | 113 | 106 | 120 | 118 | 103 | 115 | 118 | 112 | – | – | – | – | – | – | – | – | – | – | –
C=CCc1ccc(O)c(-c2ccc(O)c(CC=C)c2)c1 | 107 | 105 | 119 | 118 | 122 | 112 | 95.3 | 61 | 51 | 60.4 | 62.6 | 114 | 106 | 107 | 112 | 119 | 111 | 91.4 | 54.7 | 47.9 | 58.9 | 53.8 | 111 | 117 | 112 | 120 | 112 | 94.8 | 90.6 | 93.4 | 84.3 | 86.8 | 88.7
OCCC#Cc1nc(-c2ccc(F)cc2)c(-c2ccncc2)n1CCCc1ccccc1 | 119 | 122 | 122 | 135 | 127 | 138 | 150 | 136 | 128 | 132 | 116 | – | – | – | – | – | – | – | – | – | – | – | – | – | – | – | – | – | – | – | – | – | –
CC(NCCc1ccc(O)cc1)C(O)c1ccc(O)cc1 (configuration not stated) | 113 | 106 | 107 | 113 | 102 | 96.2 | 101 | 104 | 105 | 94.8 | 95 | 93.4 | 114 | 109 | 99.7 | 110 | 114 | 102 | 93.8 | 91.3 | 93.5 | 77.3 | 124 | 123 | 121 | 111 | 124 | 120 | 127 | 110 | 118 | 97.5 | 80
COc1cc(C)c(Sc2cnc(NC(=O)c3ccc(CNC(C)C(C)C)cc3)s2)cc1C(=O)N1CCN(C(C)=O)CC1 (configuration not stated) | 117 | 119 | 128 | 131 | 117 | 126 | 134 | 108 | 105 | 107 | 126 | – | – | – | – | – | – | – | – | – | – | – | – | – | – | – | – | – | – | – | – | – | –
Cc1ncc([N+](=O)[O-])n1CC(C)O (configuration not stated) | 100 | 123 | 106 | 106 | 113 | 118 | 132 | 117 | 117 | 105 | 113 | 101 | 107 | 95.3 | 96.4 | 113 | 116 | 110 | 110 | 115 | 115 | 101 | 96.1 | 100 | 117 | 114 | 119 | 110 | 111 | 116 | 117 | 120 | 108
C1CCN2C[C@H]3C[C@H](\C=C/4CCCN[C@@H]34)[C@H]2C1 | 105 | 105 | 108 | 104 | 98.7 | 108 | 104 | 105 | 108 | 63.7 | 55 | 107 | 108 | 114 | 121 | 108 | 108 | 120 | 111 | 120 | 78.6 | 64.2 | 96.5 | 113 | 113 | 133 | 96.1 | 122 | 137 | 107 | 115 | 99.5 | 92.8
N#C/N=C(\NCCCCCCOc1ccc(Cl)cc1)Nc1ccncc1 | 61 | 41.9 | 22 | 19.2 | 15.7 | 9.97 | 11.4 | 8.82 | 9.25 | 8.91 | 6.02 | 81.6 | 58.1 | 26.1 | 21 | 12.5 | 12.2 | 9.8 | 8.26 | 7.27 | 6.87 | 5.38 | 49.3 | 47.6 | 19.9 | 15.5 | 12.6 | 11.9 | 9.75 | 9.76 | 9.75 | 8.47 | 6.05
CCN(c1ccccc1)c1cc(NC)[n+](C)c(C)n1 | 115 | 104 | 106 | 110 | 101 | 104 | 123 | 122 | 112 | 95.5 | 103 | 106 | 111 | 112 | 124 | 122 | 116 | 126 | 113 | 103 | 108 | 108 | 121 | 123 | 109 | 120 | 130 | 115 | 116 | 123 | 107 | 109 | 111
